Data set [1] has as its target T1, human 5-HT1A receptor (Homo sapiens (Human), UniProt P08908). Kind of data set: Test 1: binding activity for human 5-HT1A receptor ([3H]8-OH-DPAT). To be noted: CHO cell membrane fraction. The method, then:
(§1) Test 1: Evaluation of binding activity for human 5-HT1A receptor, human 5-HT2A receptor, and human D2 receptor
(§2) Binding affinity of the present compound for human 5-HT1A receptor, human 5-HT2A receptor, and human D2 receptor was measured by the following procedures.
(§3) Each mixture was incubated at room temperature for 60 minutes. Then, the mixture was added quickly on a glassfiber filter plate (Multiscreen FB, Millipore, Inc.) coated with 0.3% aqueous polyethylenimine, and vacuum-filtered. Radioactivity remaining on the filter was measured with a liquid scintillation counter (PerkinElmer, Inc.). Binding inhibition rate was calculated from the following formula.
IC50 value was calculated by Hill analysis (Physiology, 1910, 40, 190-200). Ki of each compound was calculated from the following formula.
(§4) Binding inhibition constant (Ki)=IC50/(1+S/Kd) wherein S is concentration of ligand; Kd is a binding dissociation constant of ligand to membrane, which is calculated from a saturated binding experiment conducted with the same cell membrane. A small Ki value means strong binding ability to a receptor.

In a further data set the target is human D2 receptor (Homo sapiens (Human), UniProt P14416). The experiment in a line: Test 1: binding activity for human D2 receptor ([3H]Spiperone). To be noted: for Ki: [3H]Spiperone, CHO cell membrane fraction; for D2 Ki/5-HT1A Ki: ratio of D2 Ki to 5-HT1A Ki; for D2 Ki/5-HT2A Ki: ratio of D2 Ki to 5-HT2A Ki. As for the experimental part: as §1, §2, §3
Sequence of human D2 receptor (P14416 whole entry): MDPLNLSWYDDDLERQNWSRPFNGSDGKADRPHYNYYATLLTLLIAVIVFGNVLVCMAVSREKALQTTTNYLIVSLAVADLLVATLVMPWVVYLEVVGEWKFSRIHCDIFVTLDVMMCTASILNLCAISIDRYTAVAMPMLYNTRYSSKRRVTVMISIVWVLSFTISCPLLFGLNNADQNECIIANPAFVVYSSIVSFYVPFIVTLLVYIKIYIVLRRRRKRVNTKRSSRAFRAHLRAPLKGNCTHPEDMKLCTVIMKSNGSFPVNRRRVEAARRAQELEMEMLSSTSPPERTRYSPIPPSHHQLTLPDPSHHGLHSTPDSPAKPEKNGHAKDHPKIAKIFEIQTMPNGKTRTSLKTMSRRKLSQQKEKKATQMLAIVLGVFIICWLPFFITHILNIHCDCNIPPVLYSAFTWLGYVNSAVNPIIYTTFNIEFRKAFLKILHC
(§5) Ki of each compound was calculated from the following formula.
as §4

Data set [2] has as its target T1, human 5-HT1A receptor. The experiment in a line: Test 2: agonist activity for human 5-HT1A receptor ([35S]GTPγS binding). It is filed as biochemical. To be noted: for Emax at 10 µM / 5-HT1A agonist activity Emax: agonist activity in the presence of 10 μM of compound, relative to 100 μmol/L 5-HT. As for the experimental part: Test 2: Evaluation of Agonist Activity for Human 5-HT1A Receptor
CHO cell membrane fraction in which human 5-HT1A receptor was expressed as used in Test 1 was purchased. To a buffer containing guanosine diphosphate were added a test compound dissolved in DMSO, each receptor membrane sample diluted with buffer, and [^35S] Guanosine 5′-O-[gamma-thio]triphosphate (GTPγS). The mixture was incubated at room temperature for 60 minutes. Then, the mixture was added quickly on a glassfiber filter plate (Multiscreen FB, Millipore, Inc.), and vacuum-filtered. Radioactivity remaining on the […] was measured with a liquid scintillation counter. Agonist activity was calculated from the following formula.
For orientation: GTPγS resists hydrolysis and so accumulates on activated G proteins.

Data set [3] can be described thus: Test 4: metabolic stability test in human hepatic microsome. It is filed as in vitro ADME. As to conditions: 0.1 mg/mL microsome, 0.1 μmol/L compound, 37° C., 30 minutes. The method, then:
Test 4: Metabolic Stability Test in Human Hepatic Microsome
The stability of the present compound in human hepatic microsome metabolism was evaluated as mentioned below. Human hepatic microsome was obtained from Xenontech. Human hepatic microsome, NADPH, and each test compound were mixed in 25 mmol/L phosphate buffer solution (pH 7.4) to reach the following concentrations as shown below, and the mixture was incubated at 37° C. for 30 minutes. • Human hepatic microsome: 0.1 mg/mL • NAPDH: 3.2 mmol/L • Test compound: 0.1 μmol/L
The residual ratio of the test compound in each sample after 30 minutes was measured by LC-MS, and the metabolic stability in human hepatic microsome was calculated from the following formula. Metabolic stability in human hepatic microsome (mL/min/mg protein)=−LN(residual ratio)/30/0.1

For data set [4], the target named is T2, human 5-HT2A receptor (Homo sapiens (Human), UniProt P28223). Kind of data set: Test 3: antagonist activity for human 5-HT2A receptor (aequorin luminescence, CHO-K1 cells). As to conditions: against 1 nmol/L 5-HT. The data set is classed as cell-based. As for the experimental part:
Test 3: Evaluation of Antagonist Activity for Human 5-HT2A Receptor
Aequorin, Gα16 protein, and each receptor were transiently expressed in CHO-K1 cells (Chinese hamster ovary). […] Antagonist activity was calculated from the following formula.
Antagonist activity (%)=100×{(Luminescence of well in the presence of 1 nmol/L 5-HT−Luminescence of well containing solvent)−(Luminescence of well in the presence of test compound and 1 nmol/L 5-HT−Luminescence of well containing solvent)}/(Luminescence of well in the presence of 1 nmol/L 5-HT−Luminescence of well containing solvent)

The target in a further data set is hERG channel (Homo sapiens (Human), UniProt Q12809). Kind of data set: Test 6-1: inhibitory activity for hERG channel (auto patch clamp, Qpatch). To be noted: whole cell patch clamp, read-out: hERG inhibition IC50. The data set is classed as cell-based. As for the experimental part:
Test 6-1: Evaluation of Inhibitory Activity for hERG Channel
Inhibitory activity of the present compound for hERG channel was measured by whole cell patch clamp method with an auto patch clamp system using CHO cells in which hERG channel involved in human rapidly activating delayed rectifier potassium current (IKr) was forcibly expressed.
(Preparation of cell suspension)
hERG-CHO cells purchased from ChanTest Cop. were cultured in a CO2 incubator at 37° C., and dissociated from a flask with trypsin shortly before the measurement of hERG current, to prepare a cell suspension.
(Preparation of Solution)
Extracellular and intracellular fluid used in the measurement were prepared as follows.
Intracellular fluid: 5.4 mmol/L CaCl2, 1.8 mmol/L MgCl2, 10 mmol/L HEPES, 31 mmol/L KOH, 10 mmol/L EGTA, 120 mmol/L KCl, 4 mmol/L Na2-ATP
Test compound solution: Test compound was dissolved in DMSO to reach the concentration of 2 mmol/L or 20 mmol/L, in order to prepare a test compound solution. […] (Measurement of Current Value and Data Analysis)
The cell suspension, the extracellular fluid, the intracellular fluid, and the measurement plate were set in the auto patch clamp system, and hERG current was measured by whole cell patch clamp method. […] Each pulse interval was 15 seconds. The data analysis was carried out with Qpatch Assay Software (Biolin Scientific). The test was carried out by applying incrementally 4 concentrations of each test compound, and the average of the maximum peak tail currents which were obtained from the last 3 stimulations in each concentration was determined as the evaluated data.
A general note: Block of hERG is tested as a sign of cardiac risk.

The target in data set [5] is T2, human 5-HT2A receptor. Kind of data set: Test 1: binding activity for human 5-HT2A receptor ([3H]Ketanserin). To be noted: CHO cell membrane fraction. The method, then:
as §1, §2, §3, §5, §4

Where [6] appears, read: human, CHO cells that express hERG.

The values below come from patent US12180213B2, “Substituted pyrazoles showing serotonin 5-HT receptor activity” (Sumitomo Pharma Co., Ltd., priority 2018, dated 2024).

Structures are written as SMILES. Read-outs that look alike come from different tables or passages of the source. Where only a bound is given, the exact number is not on record here.

Sequence of hERG channel (Q12809 whole entry): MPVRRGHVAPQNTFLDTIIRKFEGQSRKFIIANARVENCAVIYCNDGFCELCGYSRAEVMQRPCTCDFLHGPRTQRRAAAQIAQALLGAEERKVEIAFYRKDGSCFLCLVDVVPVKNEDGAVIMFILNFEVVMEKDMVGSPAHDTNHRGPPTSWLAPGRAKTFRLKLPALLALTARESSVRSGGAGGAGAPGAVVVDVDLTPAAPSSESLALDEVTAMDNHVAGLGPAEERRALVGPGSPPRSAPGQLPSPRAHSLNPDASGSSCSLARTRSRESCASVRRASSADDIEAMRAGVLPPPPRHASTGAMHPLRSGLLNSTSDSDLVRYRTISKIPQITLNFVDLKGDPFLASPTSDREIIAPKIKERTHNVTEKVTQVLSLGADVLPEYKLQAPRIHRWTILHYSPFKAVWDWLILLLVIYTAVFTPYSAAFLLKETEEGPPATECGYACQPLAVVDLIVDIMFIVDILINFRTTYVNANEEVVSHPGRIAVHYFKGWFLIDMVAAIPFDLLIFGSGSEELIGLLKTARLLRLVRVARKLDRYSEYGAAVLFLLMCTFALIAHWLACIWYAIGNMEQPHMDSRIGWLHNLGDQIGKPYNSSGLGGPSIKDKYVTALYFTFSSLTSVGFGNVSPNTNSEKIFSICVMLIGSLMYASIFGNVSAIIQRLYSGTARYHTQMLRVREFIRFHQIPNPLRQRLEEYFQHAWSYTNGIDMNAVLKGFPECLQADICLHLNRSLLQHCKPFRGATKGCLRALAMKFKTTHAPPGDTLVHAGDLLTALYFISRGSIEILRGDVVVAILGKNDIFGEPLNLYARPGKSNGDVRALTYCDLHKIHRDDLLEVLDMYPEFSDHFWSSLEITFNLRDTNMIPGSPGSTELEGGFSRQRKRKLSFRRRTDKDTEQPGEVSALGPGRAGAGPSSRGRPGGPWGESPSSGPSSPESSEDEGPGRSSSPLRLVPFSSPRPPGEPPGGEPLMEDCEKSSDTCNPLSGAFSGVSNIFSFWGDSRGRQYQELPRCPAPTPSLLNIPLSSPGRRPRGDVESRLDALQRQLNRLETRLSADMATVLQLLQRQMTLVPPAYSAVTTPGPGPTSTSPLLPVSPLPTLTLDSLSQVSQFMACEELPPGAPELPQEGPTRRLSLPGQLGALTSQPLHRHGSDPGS
T1 sequence (P08908 whole entry): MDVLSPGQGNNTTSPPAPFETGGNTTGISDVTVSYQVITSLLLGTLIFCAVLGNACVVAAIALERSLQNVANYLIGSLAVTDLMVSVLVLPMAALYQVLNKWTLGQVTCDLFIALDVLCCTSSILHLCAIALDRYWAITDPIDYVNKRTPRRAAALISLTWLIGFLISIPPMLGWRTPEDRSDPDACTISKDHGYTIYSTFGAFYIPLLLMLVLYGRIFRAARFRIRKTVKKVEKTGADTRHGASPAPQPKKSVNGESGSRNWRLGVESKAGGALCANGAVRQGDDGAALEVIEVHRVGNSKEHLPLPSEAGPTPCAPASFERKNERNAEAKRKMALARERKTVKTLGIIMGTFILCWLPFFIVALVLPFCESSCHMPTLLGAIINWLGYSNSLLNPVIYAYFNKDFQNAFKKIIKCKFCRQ
T2 sequence (P28223 whole entry): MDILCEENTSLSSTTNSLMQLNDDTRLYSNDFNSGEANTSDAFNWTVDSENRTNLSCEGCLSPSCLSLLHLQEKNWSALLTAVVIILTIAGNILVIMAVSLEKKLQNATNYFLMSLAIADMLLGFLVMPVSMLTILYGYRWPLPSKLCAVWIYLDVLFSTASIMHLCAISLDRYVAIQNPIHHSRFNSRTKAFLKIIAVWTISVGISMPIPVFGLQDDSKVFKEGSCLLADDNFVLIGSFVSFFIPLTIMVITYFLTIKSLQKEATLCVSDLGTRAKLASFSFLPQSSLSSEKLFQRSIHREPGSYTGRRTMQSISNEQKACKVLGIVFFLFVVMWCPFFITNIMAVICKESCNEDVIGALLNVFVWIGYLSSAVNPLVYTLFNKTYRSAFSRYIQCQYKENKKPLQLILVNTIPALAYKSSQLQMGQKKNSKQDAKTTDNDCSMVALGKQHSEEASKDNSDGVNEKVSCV

`O=c1c2ncccc2ccn1CCN1CCN(c2nsc3cc(F)ccc23)CC1` [Example 12]: on human 5-HT1A receptor [1], the affinity corresponds to a Ki of 7.03 nM. Further, at human D2 receptor, the affinity, expressed as Ki, was 311 nM; the “D2 Ki/5-HT1A Ki” value worked out at 44; the “D2 Ki/5-HT2A Ki” value is reported as 111. Further, the Emax at 10 µM on human 5-HT1A receptor [2] was 32%. Besides, in data set [3], the “Metabolic stability in human hepatic microsome” value (from here on “Metabolic stability”) came to 0.02 mL/min/mg protein.

On to `O=C1c2cnccc2CCN1CCN1CCC(c2noc3ccccc23)CC1` [Example 13], for which the half-inhibitory concentration (IC50) on human 5-HT2A receptor [4] is 71 nM; on hERG channel (hERG-CHO cells), 1100 nM. Further, the “Metabolic stability” value in data set [3] was less than 0.01 mL/min/mg protein.

At human 5-HT2A receptor [5], `Cn1ncc2c1CCCC(CCN1CCN(c3noc4ccccc34)CC1)C2=O` (stereo not drawn) [Example 30] gave a Ki of 0.76 nM. At human 5-HT1A receptor [2], the maximal response (Emax) at 10 µM worked out at 42%. Moreover, the “Metabolic stability” value in data set [3] is given as 0.065 mL/min/mg protein. Moreover, the IC50 on hERG channel (setting [6]) came out at 900 nM.

As to `Cc1noc2c1C(=O)N(CCN1CCN(c3noc4ccccc34)CC1)CCC2` [Example 38], the Ki came to 13.5 nM at human 5-HT1A receptor [1] and 4.44 nM on human 5-HT2A receptor [5]. Besides, the maximal effect (Emax) at 10 µM on human 5-HT1A receptor [2] is 56%. Further, the “Metabolic stability” value in data set [3] was 0.136 mL/min/mg protein. Also, the IC50 at hERG channel (setting [6]) came to 500 nM.

With `Cc1nc2c(o1)CCN(CCN1CCN(c3noc4ccccc34)CC1)C2=O` [Example 39], the values for the Ki on human 5-HT1A receptor [1] and at human D2 receptor were 0.84 nM and 1860 nM, respectively. The Emax at 10 µM at human 5-HT1A receptor [2] came to 61%. In data set [3], the “Metabolic stability” value stood at 0.016 mL/min/mg protein.

With `Cc1cc2c(o1)C(=O)N(CCN1CCN(c3nsc4ccccc34)CC1)CC2` [Example 45], on human 5-HT2A receptor [5], the Ki is 3.1 nM. Besides, the maximal response (Emax) at 10 µM at human 5-HT1A receptor [2] stood at 65%. Moreover, the “Metabolic stability” value in data set [3] is recorded as 0.032 mL/min/mg protein. The half-inhibitory concentration (IC50) at hERG channel (setting [6]) is 7000 nM.

`O=C1c2oc(C3CC3)nc2CCC1CCN1CCN(c2nsc3ccccc23)CC1` (stereo not drawn) [Example 67] gave an inhibitory constant (Ki) on human 5-HT1A receptor [1] of 1.17 nM. Moreover, at human 5-HT1A receptor [2], the maximal effect (Emax) at 10 µM is 65%. The “Metabolic stability” value in data set [3] stood at 0.269 mL/min/mg protein.

Turning to `Cn1nc(Br)c2c1CCN(CCN1CCN(c3nsc4ccccc34)CC1)C2=O` [Example 69], the EC50 at human 5-HT1A receptor [2] (concentration at which half the activity of Emax was obtained) was found to be 33.9 nM.

In the case of `Cn1nc(Br)c2c1CCN(CCN1CCC(c3noc4ccccc34)CC1)C2=O` [Example 70], the “5-HT1A agonist activity Emax” value at human 5-HT1A receptor [2] was determined as 50%.

As for `Cn1nc2c(c1Br)C(=O)N(CCN1CCN(c3nsc4ccccc34)CC1)CC2` [Example 73], the “5-HT1A agonist activity Emax” value on human 5-HT1A receptor [2] turned out to be 62%.

Turning to `CC1CC(CCN2CCC(c3noc4ccccc34)CC2)C(=O)c2ccn(C)c21` (stereo not drawn) [Example 82], the figures for the Ki on human 5-HT1A receptor [1] and at human 5-HT2A receptor [5] were 0.61 nM and 0.87 nM, respectively. In addition, the maximal response (Emax) at 10 µM at human 5-HT1A receptor [2] amounted to 61%. Also, in data set [3], the “Metabolic stability” value came out at 0.072 mL/min/mg protein.

`O=C1c2ncccc2CCN1CCN1CCN(c2noc3cc(Cl)ccc23)CC1` [Example 124]: the Ki at human D2 receptor is more than 10000 nM.

As for `COc1ccc2c(N3CCN(CCN4CCc5cccnc5C4=O)CC3)noc2c1` [Example 149], on human 5-HT1A receptor [1], the Ki was determined as 184 nM. The Ki at human 5-HT2A receptor [5] is 217 nM. Moreover, on human D2 receptor, the Ki is more than 10000 nM, the “D2 Ki/5-HT1A Ki” value is on record as more than 54.3 and the “D2 Ki/5-HT2A Ki” value is more than 46.1. Further, the maximal effect (Emax) at 10 µM at human 5-HT1A receptor [2] turned out to be 16%.

As for `COc1ccc2c(n1)C(=O)N(CCN1CCN(c3noc4ccccc34)CC1)CC2` [Example 186], the “Metabolic stability” value in data set [3] was 0.095 mL/min/mg protein.

`COc1ccc2c(n1)C(=O)N(CCN1CCC(c3noc4ccccc34)CC1)CC2` [Example 187]: the “Metabolic stability” value in data set [3] is given as less than 0.05 mL/min/mg protein.

One may read the Ki as the dissociation constant of the complex between target and ligand, obtained from inhibition or displacement. Higher therefore signals a looser hold on the target. A word on the Emax: it is the maximal effect, on the per cent scale that the assay sets. As a reminder, the IC50 is the midpoint of a concentration-inhibition curve. In general, EC50 refers to the midpoint of the concentration-response curve. A high value points to lower potency in that assay.
